From publication PMC6611213, “Key Features Relevant to Select Antigens and TCR From the MHC-Mismatched Repertoire to Treat Cancer” (Frontiers in Immunology, 2019)

Legend:
HLA-B7 monomers [1] = experiment: Thermal shift assay (DSF) of p-MHC complexes; type: binding, human; details: for Thermal stability V50: 2 µM monomer, 150 mM NaCl, 10 mM HEPES pH 7.4, 3 mM EDTA, SYPRO orange, 21°C to 95°C, mean of quadruplicates (n=2); for thermal V50: Boltzmann fitting, rounded
Protocol: (§1) (A) Thermal shift assay of MPO-peptides in comparison to pp65 and MPO2+L1. Boltzmann fitting was used to determine V50 values (half-maximal denaturation) for each p-MHC complex after gradual heating from 21°C to 95°C. The mean of quadruplicates is shown (n=2). (B) Measurement of kinetic stability of indicated p-MHC complexes in comparison to pp65 and MPO2+L1 at constant temperature of 37°C. For the determination of half-maximal decay of p-MHC complexes, the slowest constant rates were used after fitting the fluorescence values with an exponential two-phase decay equation. The mean of quadruplicates is shown (n=2). (A,B) The fluorescence was measured by monitoring the intensity of SYPRO orange protein dye binding to hydrophobic core regions of unfolded p-MHC-complexes. (C) Occurrence of the MPO2 and MPO5 peptides on the surface of indicated AML cell lines with endogenous HLA-B7 expression using the heavy labelled Leu7 counterpart for detection. Logarithmic intensities of MPO peptide surface presentation for MPO peptides are shown in duplicates. MPO5 peptides are depicted in blue, MPO2 peptides are depicted in green (n=2).
(§2) For differential scanning fluorimetry (DSF), i.e. thermal shift assay and kinetic stability measurement, MPO2-, MPO2+L1-, MPO5- or pp65(417-426) peptide exchanged HLA-B7 monomers were used in a concentration of 2µM and analyzed on a StepOnePlus RT-PCR instrument (Applied Biosystems, Foster City, CA, USA), respectively. Samples were measured in a final volume of 20µl in MicroAmp^R Fast Optical 96-well reaction plates (Applied Biosystems) containing 150mM NaCl, 10mM HEPES (pH 7.4), 3mM EDTA and 10x SYPRO orange (Thermo Fisher Scientific) as described previously (Hellman et al., 2016). Analysis was done following the recommendations described elsewhere (Niesen et al., 2007) using the Microsoft Excel-based tool “DSF Analysis v3.0.2” available under the following link (ftp://ftp.sgc.ox.ac.uk/pub/biophysics). For accurate ﬁtting and calculation of V50-values, the Boltzmann equation was performed using GraphPad Prism (version 7.04, San Diego, USA). The kinetic stability was analyzed at constant 37°C and fluorescence was measured every 5 minutes. The fluorescent data were fit to a two-phase decay function and slowest rates for half-lives were calculated using GraphPad Prism (version 7.04, San Diego, USA).

HLA-B7 monomers [2] = experiment: Kinetic stability of p-MHC complexes at 37°C (DSF); type: binding, human; details: DSF at constant 37°C; for Half-life 37°C: pH 7.4, SYPRO orange, two-phase decay, slowest rate, mean of quadruplicates (n=2)
Protocol: as §1, §2

HLA-B7 monomers [3] = experiment: UV-mediated peptide exchange, B2M ELISA; type: binding, human; details: for Stability after UV-peptide exchange, V50: Pooled values of at least three independent experiments, 0–200 μM peptide, UV 366 nm, B2M ELISA, Boltzmann fit; for HLA-stabilization potential: UV-peptide exchange, titrated peptide
Protocol: Biotinylated HLA-B7 monomers loaded with the UV-cleavable epitope AARG(J)TLAM were created as previously described ([33]). Peptide-HLA stability was measured using the protocol on the basis of Rodenko et al. ([34]). In brief, HLA-B7 monomers loaded with the UV-sensitive peptide were exposed to UV light (366 nm) in the presence of graded amounts (0–200 μM) of MPO peptides. Afterward 1:10 dilutions of the UV-exchanged monomers were adhered via streptavidin to the bottom of a 96-well plate (F96 maxisorp nunc-immune plate, Thermo scientific) and a beta-2-microglobulin ELISA was performed. The OD measurements were performed on a Tecan Sunrise multi-well-reader using Magellan software (version 7.2).
(§3) An E/T ratio of 1:1 was used. IFN-γ secretion of the supernatants after co-cultivation was measured by IFN-γ ELISA. […] (B) Beta-2-microglobulin (B2M)-ELISA of UV-mediated peptide exchanged HLA-B7 monomers. V50 values of a Boltzmann fitting for each MPO-peptide was determined by the optical density of B2M after degraded amounts of MPO-peptides were used for HLA-stabilization. […] (C) Pooled results of (B) for MPO5 (n = 4), MPO2 (n = 4), and MPO2+L1 (n = 3). Significance is calculated by Mann-Whitney Test: *p = 0.0286. TEXT PRINTED IN THE PICTURE: (B) MPO5: V50 = -5,204 | (B) MPO2: V50 = -4,610 | (B) MPO2+L1: V50 = -4,143
To verify the stability results of all three MPO-peptides experimentally, we performed HLA-B7 UV-peptide exchange assays with titrated amounts of peptide added to a constant concentration of HLA-B7 monomers bound to a UV-sensitive peptide. […] Thus, our results oppose the results of the NetMHC stability prediction. As a second experiment, we performed thermal shift assays for the MPO peptides to characterize their potential to prevent denaturation of the HLA-complex with ascending temperature (Supplementary Figure 3A; Table 1).

HLA-B7+ LCL1 cell line = experiment: IFN-γ release by TCRF5.4-transduced PBMC to peptide-pulsed LCL1; type: cell-based, human; details: peptide-pulsed LCL1, E/T 1:1, ELISA, triplicates (n = 2)
Protocol: as §3

[4] = system: HL60, ML2, NB4 and SiG-M5 AML cell lines; experiment: Cytokine secretion by TCR-transduced CD8+ T cells to AML cell lines; type: cell-based, human; details: AML cell lines pulsed with MPO2 or MPO5
Protocol: The cytotoxic reactivity of T cells was tested by flow cytometry making use of changes in signal of the HLA-B7eGFP-transgenic target cells during co-cultivation for different time periods and effector to target ratios. For relative quantification of cytotoxicity, AccuCheck counting beads were used according to the manufacturer's protocol (Thermo Fisher Scientific) and the results were normalized to either non-TCR-transduced T cells or irrelevant T-cell clones. The supernatants of the co-cultivation were used to measure IFN-γ by ELISA (BD) or GM-CSF, IFN-γ, and lL-2 multiplexed by flow cytometry (Miltenyi Biotec) according to the manufacturer's instructions. […] If not stated otherwise, the effector to target ratio was set to 1:1 for the co-incubation assays using 20,000 cells in each fraction.
Half-maximal IFN-γ release was calculated using logarithmic dose-response fitting algorithm with variable slope (EC50) of GraphPad Prism. Mean ± SD of triplicates of one representative experiment are shown (n = 6). […] 10.000 effector cells were used in a ratio of 1:1. Standard deviations of the mean of triplicates are shown (n = 4). (Gi−iv) Cytokine secretion (GM-CSF, IFN-γ, and IL-2) measured by flow cytometry based multiplex analysis in response to selected AML cell lines is shown in triplicates either unpulsed or additionally pulsed with MPO2 or MPO5.

AML cell lines = experiment: Targeted MS of surface-presented peptides; set-up: species or system human; details: targeted MS with heavy labelled peptides; MPO2 compared to MPO5 (n=2)
Protocol: as §1, with “MPO5 peptides are depicted in blue, MPO2 peptides are depicted in green (n=2).” left out
The MPO2 and MPO5 ligands were identified using an immunopeptidomic approach as previously described (Klar et al., 2014). For the targeted identification and relative quantification of both peptides, HLA-I peptides were purified from 5x10^8 cells of each cell line as previously described (Bassani-Sternberg et al., 2016). […]

| Sequence | Thermal stability V50 (HLA-B7 monomers [1]) | thermal V50 (HLA-B7 monomers [1]) | Half-life 37°C (HLA-B7 monomers [2]) | Stability after UV-peptide exchange, V50 (HLA-B7 monomers [3]) | HLA-stabilization potential (HLA-B7 monomers [3]) | IFN-γ secretion by TCRF5.4-transduced T cells (HLA-B7+ LCL1 cell line) | Half-life (decay of HLA-complexes) 37°C (HLA-B7 monomers [2]) | effect of additional peptide pulsing on cytokine secretion [4] | surface presentation on AML cell lines (AML cell lines) |
| --- | --- | --- | --- | --- | --- | --- | --- | --- | --- |
| TPRVTGGGAM [pp65, pp65(417-426) control peptide […], reference compound] | 50.0 °C | 50 °C | 5.6 h | – | – | – | – | – | – |
| LTPAQLNVL [MPO2+L1] | 44.0 °C | 44 °C | 2.9 h | −3.728 log10 M | lowest potential for HLA-stabilization | detected IFN-γ secretion | – | – | – |
| TPAQLNVL [MPO2] | 46.3 °C | 46 °C | 3.5 h | −4.671 log10 M | – | – | 3.5 h | these differences could be compensated by additional MPO2 peptide pulsing | markedly lower presented on the surface of all AML cells lines compared to MPO5 |
| NPRWDGERL [MPO5] | 46.4 °C | 46 °C | 4.1 h | −5.535 log10 M | almost one log increased potential to rescue the HLA-B7 molecule | – | 4.1 h | did not have a major impact on cytokine secretion | – |
